For test [1], the target named is Alpha-glucosidase MAL12 (Saccharomyces cerevisiae (strain ATCC 204508 / S288c), UniProt P53341). Put plainly: α-Glucosidase Assay. The following applies: pH 6.8.
Experimental: The α-glucosidase inhibition activity was performed with slight modifications according to method. […] Thecontents were mixed, preincubated for 10 min at 37 °C and preread at 400 nm. The reaction was initiated by the addition of 10 µL of 0.5 mM substrate (p-nitrophenyl glucopyranoside, Sigma Inc.). After 30 min of incubation at 37 °C, absorbance of the yellow color produced due to the formation of p-nitrophenol was measured at 400 nm using Synergy HT (BioTek, USA) 96-well microplate reader. Acarbose was used as positive control.
Test [2] deals with Acetylcholinesterase (Electrophorus electricus, UniProt O42275). Put plainly: AChE and BChE Assay. The following applies: pH 7.7. The procedure:
(§1) The AChE inhibition assay was performed according to the Ellman's method. Total volume of 100 µL reaction mixture contained 60 µL 50 mM Na2HPO4 buffer, pH 7.7. Ten µL test compound (0.5 mM well#1) was added, followed by the addition of10 µL (0.005 unit well#1 AChE, 0.5 unit well#1 BChE, Sigma Inc.) enzyme. […] The reaction was initiated by the addition of 10 µL of 0.5 mM well#1 substrate (acetylthiocholine iodide or butyrylthiocholine chloride, Sigma Inc.), followed bythe addition of 10 µL DTNB from Sigma Inc. (0.5 mM well#1). After 15 min of incubation at 37 °C, absorbance was measured using 96-well plate reader Synergy HT, Biotek, USA. All experiments were carried out with their respective controls in triplicate.

Test [3] deals with Cholinesterase (Homo sapiens, UniProt P06276). Put plainly: AChE and BChE Assay. The following applies: pH 7.7. On the procedure: as §1
Cholinesterase, sequence (P06276 whole entry): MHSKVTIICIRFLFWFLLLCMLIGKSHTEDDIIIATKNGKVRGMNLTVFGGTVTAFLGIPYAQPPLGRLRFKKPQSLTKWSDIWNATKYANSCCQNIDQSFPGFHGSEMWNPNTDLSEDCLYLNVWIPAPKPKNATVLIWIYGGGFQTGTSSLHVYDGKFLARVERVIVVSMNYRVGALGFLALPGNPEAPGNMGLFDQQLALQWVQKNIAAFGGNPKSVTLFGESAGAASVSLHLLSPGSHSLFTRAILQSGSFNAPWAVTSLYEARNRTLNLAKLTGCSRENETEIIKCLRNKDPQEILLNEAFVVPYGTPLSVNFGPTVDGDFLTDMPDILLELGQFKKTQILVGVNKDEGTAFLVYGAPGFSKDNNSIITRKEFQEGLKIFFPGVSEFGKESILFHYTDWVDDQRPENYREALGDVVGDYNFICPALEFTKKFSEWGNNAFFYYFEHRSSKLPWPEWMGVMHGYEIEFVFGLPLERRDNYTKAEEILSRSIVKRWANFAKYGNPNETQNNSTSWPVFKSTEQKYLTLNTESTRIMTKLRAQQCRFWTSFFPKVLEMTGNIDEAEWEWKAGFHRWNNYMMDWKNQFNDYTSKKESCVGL

In general, IC50 refers to the midpoint of a concentration-inhibition curve.

Alpha-glucosidase MAL12, sequence (P53341 whole entry): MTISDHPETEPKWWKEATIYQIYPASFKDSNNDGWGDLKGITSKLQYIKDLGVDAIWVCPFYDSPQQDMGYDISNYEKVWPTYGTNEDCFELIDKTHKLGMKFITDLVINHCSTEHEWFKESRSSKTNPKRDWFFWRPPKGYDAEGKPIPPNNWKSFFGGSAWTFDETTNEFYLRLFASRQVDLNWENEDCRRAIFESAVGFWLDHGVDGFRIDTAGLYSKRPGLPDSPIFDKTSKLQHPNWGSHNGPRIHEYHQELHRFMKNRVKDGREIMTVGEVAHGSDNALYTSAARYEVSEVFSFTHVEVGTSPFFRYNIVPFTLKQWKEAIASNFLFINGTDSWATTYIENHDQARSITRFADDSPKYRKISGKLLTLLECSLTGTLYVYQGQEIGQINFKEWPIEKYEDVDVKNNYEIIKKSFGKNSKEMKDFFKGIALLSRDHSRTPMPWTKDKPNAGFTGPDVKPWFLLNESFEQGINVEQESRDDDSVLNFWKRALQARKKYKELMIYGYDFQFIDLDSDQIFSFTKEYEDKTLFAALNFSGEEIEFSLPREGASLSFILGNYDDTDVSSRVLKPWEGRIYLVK
Acetylcholinesterase, sequence (O42275 whole entry): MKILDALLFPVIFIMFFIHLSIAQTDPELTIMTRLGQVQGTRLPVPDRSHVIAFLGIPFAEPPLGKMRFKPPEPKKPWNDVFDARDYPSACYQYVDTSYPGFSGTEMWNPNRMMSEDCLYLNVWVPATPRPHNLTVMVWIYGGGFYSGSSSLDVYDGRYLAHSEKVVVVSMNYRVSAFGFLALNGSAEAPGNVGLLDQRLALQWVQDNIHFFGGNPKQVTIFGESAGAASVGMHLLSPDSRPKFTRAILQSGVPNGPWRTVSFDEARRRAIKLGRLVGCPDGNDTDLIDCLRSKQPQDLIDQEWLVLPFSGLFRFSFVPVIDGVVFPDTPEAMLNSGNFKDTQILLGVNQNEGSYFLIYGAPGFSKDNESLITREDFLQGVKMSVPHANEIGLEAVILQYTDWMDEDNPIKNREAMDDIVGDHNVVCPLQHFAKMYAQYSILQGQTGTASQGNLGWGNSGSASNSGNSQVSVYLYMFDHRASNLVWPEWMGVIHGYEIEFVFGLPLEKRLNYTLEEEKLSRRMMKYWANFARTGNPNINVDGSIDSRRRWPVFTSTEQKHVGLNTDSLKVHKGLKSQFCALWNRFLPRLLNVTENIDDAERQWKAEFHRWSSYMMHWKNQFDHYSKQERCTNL

Take `O=C(NNS(=O)(=O)c1ccccc1)c1cc(C(=O)NNS(=O)(=O)c2ccccc2)nc(C(=O)NNS(=O)(=O)c2ccccc2)c1` [N',N'',N'''-(pyridine-2,4,6-tricarbonyl)tribenzenesulfonohydrazide (4a)]: the IC50 in test [1] stood at 32.2 µM; in test [2] it was 50.2 µM; in test [3] it was 43.8 µM. For the compound `CCS(=O)(=O)NNC(=O)c1cc(C(=O)NNS(=O)(=O)CC)nc(C(=O)NNS(=O)(=O)CC)c1` [N',N'',N'''-(pyridine-2,4,6-tricarbonyl)triethanesulfonohydrazide (4h)], the values for the IC50 in test [2] and in test [3] were 29.1 µM and 112 µM, respectively. In the same order, the values of `CS(=O)(=O)NNC(=O)c1cc(C(=O)NNS(C)(=O)=O)nc(C(=O)NNS(C)(=O)=O)c1` [N',N'',N'''-(pyridine-2,4,6-tricarbonyl)trimethanesulfonohydrazide (4g)] are 10.8 µM and 44.8 µM. For the compound `O=C(NNS(=O)(=O)c1ccc(Br)cc1)c1cc(C(=O)NNS(=O)(=O)c2ccc(Br)cc2)nc(C(=O)NNS(=O)(=O)c2ccc(Br)cc2)c1` [N',N'',N'''-(pyridine-2,4,6-tricarbonyl)tris(4-bromobenzenesulfonohydrazide) (4b)], the midpoint of inhibition in test [1], the IC50, lay at 26.8 µM. Same read-out and setting: to `O=C(NNS(=O)(=O)c1ccc(Cl)cc1)c1cc(C(=O)NNS(=O)(=O)c2ccc(Cl)cc2)nc(C(=O)NNS(=O)(=O)c2ccc(Cl)cc2)c1` [N',N'',N'''-(pyridine-2,4,6-tricarbonyl)tris(4-chlorobenzenesulfonohydrazide (4d)] belongs 28.8 µM; to `O=C(NNS(=O)(=O)c1ccc(F)cc1)c1cc(C(=O)NNS(=O)(=O)c2ccc(F)cc2)nc(C(=O)NNS(=O)(=O)c2ccc(F)cc2)c1` [N',N'',N'''-(pyridine-2,4,6-tricarbonyl)tris(4-fluorobenzenesulfonohydrazide (4c)], 25.6 µM. `Cc1ccc(S(=O)(=O)NNC(=O)c2cc(C(=O)NNS(=O)(=O)c3ccc(C)cc3)nc(C(=O)NNS(=O)(=O)c3ccc(C)cc3)c2)cc1` [N',N'',N'''-(pyridine-2,4,6-tricarbonyl)tris(4-methylbenzenesulfonohydrazide) (4e)] gave an IC50 in test [1] of 125 µM.
